Tested on: PBMCs
Assay: Uptake of dye 2-labelled MSC-EVs by immune cells of the mdMLR assay
Type: cell-based, human
Conditions: 5 days with dye 2-labelled MSC-EVs
Description: The MSC-EV preparations were stained with dye 2 of the invention according to the following protocol. Dye 2 was provided as a lyophilised powder. 1 mg of dye 2 was resuspended with 1 mL buffer to a final concentration of […]. Like CFDA-SE, the dye 2 solution was centrifuged for 10 min at 17,000 x g to reduce background noise to a minimum. Briefly, for the EV-labelling 25 μL of the MSC-EV preparations were incubated with 25 μL of a prepared, centrifuged dye 2 solution (0.2 μM) for 1 hour at 37° C. The sample was diluted 1:20 to a final volume of 1 mL prior to analysis. For EV uptake experiments dye 2-labelled MSC-EV preparations were cleared from EV unbound dye 2 by ultrafiltration. Briefly, after labelling with dye 2, the MSC-EVs were washed by via centrifugation at 12,000xg through Vivaspin 500 filters (Sartorius) for 10 min. The retentate was collected as labelled EV sample.
The immunomodulatory potential of dye 2-labelled and non-labelled MSC-EV preparations were compared in a multi-donor mixed lymphocyte reaction assay (MLR) as described previously (Madel et al., 2020, Independent human mesenchymal stromal cell-derived extracellular vesicle preparations differentially affect symptoms in an advanced murine Graft-versus-Host-Disease model. bioRxiv, 2020.2012.2021.423658). Briefly, Ficoll prepared peripheral blood mononuclear cells (PBMC) of 12 healthy donors were mixed in equal proportions, aliquoted and stored in the vapour phase of liquid nitrogen until usage. After thawing 600,000 cells were seeded per well of a 96-well U-bottom shape plates (Corning, Kaiserslautern, Germany) and cultured in 10% human AB serum (produced in house) and 100 U/mL penicillin and 100 µg/mL streptomycin (Thermo Fisher Scientific) supplemented RPMI 1640 medium (Thermo Fisher Scientific) in a final volume of 200 μL per well, either in the presence or absence of MSC-EV preparations to be tested. After 5 days, cells were harvested, stained with a collection of different fluorescent labelled antibodies (CD4-BV785; BioLegend, San Diego, CA, USA; CD25-PE-Cy5.5; BD Bioscience; and CD54-AF700; EXBIO) and analysed on a Cytoflex flow cytometer (Software CytExpert 2.3, Beckman-Coulter). Activated and non-activated CD4^+ T cells were discriminated by means of their CD25 and CD54 expression, respectively. Typically, 5 μL of MSC-EV preparations to be tested were applied into respective wells. The following antibodies were used to further discriminate subpopulations: CD8-BV650 (BioLegend), CD14-PO (EXBIO), CD19-ECD (Beckman Coulter) and CD56-APC (BioLegend). The evaluation of the data was carried out with the Kaluza software (Version 2.1, Beckman Coulter).
To investigate whether EV labelling with dye 2 of the invention allows the identification of EV-uptaking cells, the labelled EV uptake of the different immune cells within the mdMLR assay was examined. To this end, a pool of PBMCs derived from 12 healthy donors were cultured for 5 days in the presence of dye 2-labelled MSC-EVs (n=3) that had been cleared from excess dye 2 by ultrafiltration. Thereafter, cells were harvested, antibody labelled and analysed by flow cytometry. The content of dye 2-labelled cells within different PBMC subtypes was determined. […] In contrast, only proportions of the different lymphocytes appeared as dye 2 positive cells, i.e. 71% of all CD4^+ T cells (CD4^+ cells), 34% of all CD8^+ T cells (CD8^+ cells), 72% of all B cells (CD19^+ cells) and 15% of all NK cells (CD56^+ cells). […]

For `CCCCCCCCCCCCCCCCCCN(C)C(=O)c1ccccc1-c1c2ccc(=[N+](CC)CC)cc-2oc2cc(N(CC)CC)ccc12.[Cl-]` [Dye 2, Rhodamine B N-methyloctadecylamide], the “dye 2 positive B cells (CD19+ cells)” value was 72%, the “dye 2 positive CD4+ T cells” value was 71% and the “dye 2 positive CD8+ T cells” value was 34%. For the same compound, the “dye 2 positive NK cells (CD56+ cells)” value was 15% and the “dye 2 positive monocytes (CD14+ cells)” value was 99%.
